As a reminder, the IC50 is the concentration that inhibits the measured activity by half. A lower IC50 goes with higher potency.

The text below walks through data of ChEMBL document CHEMBL1148637, “The combi-targeting concept: synthesis of stable nitrosoureas designed to inhibit the epidermal growth factor receptor (EGFR)” (J Med Chem, 2006).

Assay [1] deals with Epidermal growth factor receptor (Homo sapiens, UniProt P00533). The assay is described as follows: Inhibition of EGFR tyrosine kinase.
Epidermal growth factor receptor, sequence (P00533 whole entry): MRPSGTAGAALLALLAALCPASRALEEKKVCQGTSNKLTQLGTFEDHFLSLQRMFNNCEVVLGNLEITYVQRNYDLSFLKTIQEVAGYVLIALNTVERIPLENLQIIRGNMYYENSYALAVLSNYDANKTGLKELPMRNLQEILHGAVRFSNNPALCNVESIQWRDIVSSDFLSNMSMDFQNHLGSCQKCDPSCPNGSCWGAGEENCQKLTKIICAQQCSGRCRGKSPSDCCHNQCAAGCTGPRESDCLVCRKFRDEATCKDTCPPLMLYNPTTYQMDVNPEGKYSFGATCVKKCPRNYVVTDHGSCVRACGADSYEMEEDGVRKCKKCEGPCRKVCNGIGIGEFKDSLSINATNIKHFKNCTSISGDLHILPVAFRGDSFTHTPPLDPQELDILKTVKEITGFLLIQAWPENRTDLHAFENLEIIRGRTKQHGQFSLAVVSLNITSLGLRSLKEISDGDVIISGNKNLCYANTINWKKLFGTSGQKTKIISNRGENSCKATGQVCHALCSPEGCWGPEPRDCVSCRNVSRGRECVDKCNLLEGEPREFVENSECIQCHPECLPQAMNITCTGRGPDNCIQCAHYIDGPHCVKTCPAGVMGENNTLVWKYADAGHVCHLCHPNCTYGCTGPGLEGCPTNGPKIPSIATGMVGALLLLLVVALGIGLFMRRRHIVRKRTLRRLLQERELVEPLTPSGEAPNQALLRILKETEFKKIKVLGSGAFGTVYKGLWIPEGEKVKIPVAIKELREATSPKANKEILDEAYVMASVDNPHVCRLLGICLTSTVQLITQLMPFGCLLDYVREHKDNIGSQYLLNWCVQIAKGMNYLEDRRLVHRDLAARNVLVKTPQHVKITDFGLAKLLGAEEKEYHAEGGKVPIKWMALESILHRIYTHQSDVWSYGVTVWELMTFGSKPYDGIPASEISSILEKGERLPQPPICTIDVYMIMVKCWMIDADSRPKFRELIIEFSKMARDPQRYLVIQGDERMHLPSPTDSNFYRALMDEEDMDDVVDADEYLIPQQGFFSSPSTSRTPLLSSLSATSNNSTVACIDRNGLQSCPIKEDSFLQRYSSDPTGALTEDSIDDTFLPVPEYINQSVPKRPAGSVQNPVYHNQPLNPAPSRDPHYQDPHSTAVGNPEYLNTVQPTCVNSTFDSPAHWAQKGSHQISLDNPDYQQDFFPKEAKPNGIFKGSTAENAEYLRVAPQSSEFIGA
Assay [2] relates to NIH3T3. The assay is described as follows: Inhibition of serum-stimulated proliferation of mouse NIH3T3 cell line after 24 hrs. The settings on record: NIH3T3, 24 h. The assay is classed as functional, cell-based.

For the molecule `CNc1ccc2ncnc(Nc3cccc(Br)c3)c2c1`, the IC50 amounted to 0.005 µM in assay [1] and 17.6 µM in assay [2]. Regarding `Cc1cccc(Nc2ncnc3ccc(NC(=O)N(CCCl)N=O)cc23)c1`, the IC50 in assay [1] came out at 1.06 µM; in assay [2], 78.5 µM.

With `O=C(NCCCl)Nc1ccc2ncnc(Nc3cccc(Br)c3)c2c1`, the IC50 stood at 0.018 µM in assay [1] and 35.9 µM in assay [2]. The corresponding values for `O=NN(CCCl)C(=O)Nc1ccc2ncnc(Nc3cccc(Br)c3)c2c1` are 0.047 µM and 36.4 µM. As for `O=NN(CCCl)C(=O)Nc1ccc2ncnc(Nc3cccc(Cl)c3)c2c1`, in assay [2], the IC50 worked out at 157 µM. On to `CNc1ccc2ncnc(Nc3cccc(Cl)c3)c2c1`, for which the IC50 turned out to be 0.004 µM in assay [1] and 49.8 µM in assay [2]. The matching figures for `CN(C(=O)N(CCCl)N=O)c1ccc2ncnc(Nc3cccc(Br)c3)c2c1`: 0.294 µM and 10.8 µM.

Take `Cc1cccc(Nc2ncnc3ccc(N(C)C(=O)N(CCCl)N=O)cc23)c1`: the IC50 in assay [2] came to 16.5 µM. In other words, the double-digit micromolar range. For `CN(C(=O)N(CCCl)N=O)c1ccc2ncnc(Nc3cccc(Cl)c3)c2c1`, the IC50 turned out to be 0.204 µM in assay [1] and 11.7 µM in assay [2]. Consider `Cc1cccc(Nc2ncnc3ccc(NC(=O)NCCCl)cc23)c1`, for which the IC50 stood at 0.676 µM in assay [1] and 31 µM in assay [2]. For the molecule `Nc1ccc2ncnc(Nc3cccc(Br)c3)c2c1`, in assay [2], the IC50 is 26.7 µM. In the case of `CNc1ccc2ncnc(Nc3cccc(C)c3)c2c1`, the IC50 in assay [1] turned out to be 0.011 µM; in assay [2] it was 42.8 µM. The matching figures for `O=C(NCCCl)Nc1ccc2ncnc(Nc3cccc(Cl)c3)c2c1`: 0.022 µM and 157 µM.

On to `Nc1ccc2ncnc(Nc3cccc(Cl)c3)c2c1`, for which, in assay [2], inhibition was half-maximal at 97 µM (IC50).

For the molecule `Cc1cccc(Nc2ncnc3ccc(N)cc23)c1`, the midpoint of inhibition in assay [2], the IC50, lay at 44.2 µM.
